Laboratory results published in US6675105B2, “Structure-based identification of candidate compounds using three dimensional structures and models of Fc receptors” (Ilexus Pty Limited, priority 1998, dated 2004).

What was measured:
[1] = test system: monomeric human immunoglobulin IgG1; assay: BIAcore binding of PsFcγRIIa to immobilized monomeric human IgG1; conditions: 22° C., HBS pH 7.4
Experimental: (§1) Analysis of the interaction between PsFcγRIIa and monomeric immunoglobulin was performed using a BIAcorea 2000 biosensor (available from Pharmacia Biotech, Uppsala, Sweden) at about 22° C. in Hepes buffered saline (HBS; 10 mM Hepes [N-2-hydroxyethylpiperazine-N′-2-ethanesulfonic acid, available from Commonwealth Serum Laboratories, Parkville, Australia], pH 7.4, 150 mM NaCl, 3.4 mM EDTA and 0.005% Surfactant, available from Pharmacia). About 4000 to about 6000 response units (RU) of monomeric human immunoglobulin subclasses IgG1, IgG2, IgG3, and IgE (50 μg/ml of each) were covalently coupled to separate carboxymethylated dextran surface of each CM5 sensor-chips (available from BIAcore, Uppsala, Sweden) using a amine coupling kit (available from BIAcore), according to manufacturer's methods. A series of PsFcγRIIa concentrations (about 0.001 to about 1 mg/ml protein) was injected over each sensor-chip surface for about 1 minute at about 20 μl/min followed by about 3 minute dissociation phase. Following administration of the protein, the immunoglobulin surface was regenerated on each chip using a buffer containing 50 mM diethylamine pH 11.5, and 1 M NaCl. […]

[2] = test system: monomeric human immunoglobulin IgG3; assay: BIAcore binding of PsFcγRIIa to immobilized monomeric human IgG3; conditions: two site binding fit, 22° C., HBS pH 7.4
Experimental: as §1

Sequence of monomeric human immunoglobulin IgG3 (P01860 99-377 isoform P01860-1 limits assumed): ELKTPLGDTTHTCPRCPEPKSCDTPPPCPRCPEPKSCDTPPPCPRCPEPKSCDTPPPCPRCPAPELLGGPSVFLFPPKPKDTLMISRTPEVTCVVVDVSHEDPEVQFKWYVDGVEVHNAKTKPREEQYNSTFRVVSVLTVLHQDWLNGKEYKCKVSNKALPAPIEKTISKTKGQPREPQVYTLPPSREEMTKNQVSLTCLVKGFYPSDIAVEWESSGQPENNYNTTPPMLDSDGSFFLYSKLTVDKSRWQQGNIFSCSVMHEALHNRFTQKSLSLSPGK
Sequence of monomeric human immunoglobulin IgG1 (P01857 99-223 limits assumed): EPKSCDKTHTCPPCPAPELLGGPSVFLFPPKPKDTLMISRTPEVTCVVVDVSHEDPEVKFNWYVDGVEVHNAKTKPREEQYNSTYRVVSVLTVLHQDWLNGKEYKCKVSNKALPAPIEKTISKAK

Substance: PsFcγRIIa: recombinant soluble human FcγRIIa protein from baculovirus-infected Sf-21 cells; two species, SEQ ID NO:3 and SEQ ID NO:12
- affinity of PsFcγRIIa for IgG1 ([1]; at about 90% of the ligand binding sites): about 2.1×10^6 M^−1
- affinity of PsFcγRIIa for IgG1 ([1]; at the remaining 10% of sites): about 2.3×10^4 M^−1
- affinity for IgG3 ([2]; at 50% of the sites): about 2.7×10^6 M^−1
- affinity for IgG3 ([2]; at the remaining 50% of the sites): about 1.2×10^4 M^−1
